Results taken from US20140323573A1, “METABOLIZABLE SALTS AND USE THEREOF IN DIAGNOSTICS AND THERAPY” (priority 2011, published 2014).
Where a name gives a salt, the structure may show the parent alone. Read-outs that look alike come from different tables or passages of the source.

How the values were obtained:
[1] = cited from earlier work; for pK-values (first value) / pK-values (second value) / pK-values (third value): Table I, 37° C.
[2] = Buffer properties / acid-base data of 0.1 molar salt solutions (37° C.); settings: 0.1 molar solution; for NaOH ΔpH 7.2-7.6: NaOH necessary for ΔpH of 7.2-7.6; for Titr. on 7.4: NaOH necessary to set pH 7.4; for β (at 7.4) buffer capacity: calculated from NaOH for ΔpH 7.2-7.6
Excerpt: NaOH mmol/l for ΔpH of 7.2-7.6: how much NaOH in mmol/l is necessary for that ΔpH.
2. β (mmol/l/pH): the buffer capacity calculated therefrom at pH 7.40.
Titr on 7.4 (mmol/l): how much NaOH is necessary to set a pH-value of 7.4.
If a physiological pH-value of 7.4 is to be set in a 0.1 molar solution then the corresponding additives are specified in the column Titration pH=7.4. It is therefore specified how much NaOH (mmol/l) is to be added to set that pH-value.

[3] = Osmotic coefficient and osmolality of solutions; assay type: physicochemical
Excerpt: a) Osmotic Coefficients of Compounds According to the Invention and not According to the Invention

[4] = 0.1 molar solution, (literature); cited from earlier work
[5] = Feed of bicarbonate: arginine / arginine acetate solution equilibrated with CO2; assay type: physicochemical; settings: ionic strength 160 mmol/l and 37° C.
Method: If a solution with 48 mmol/l arginine is mixed with 24 mmol/l acetic acid that gives a mixture respectively comprising 24 mmol/l arginine and arginine acetate with a pH-value of about 8.6. That pH-value corresponds to the effective pK value of arginine (ionic strength 160 mmol/l and 37° C.). If that solution is necessarily equilibrated after infusion in the patient to a pCO2 of about 40 mmHg a maximum of 24 mmol/l arginine HCO3 will occur. Thus the physiological values of about 24 mmol/l HCO3 and a pH-value of about 7.4 will occur (for comparison arginine equilibration with pure CO2 in Table 1).

In the case of CC(=O)O.N=C(N)NCCC[C@H](N)C(=O)O [Arg acetate, arginine acetate], the pK [1] is given as 4.6, the pH [2] is given as 5.99 and the “NaOH ΔpH 7.2-7.6” value [2] is given as 2.8 mmol/L. For the same compound, the “Titr. on 7.4” value [2] was 7.3 mmol/L and the “β (at 7.4) buffer capacity” value [2] was 7.0 mmol/l/pH.

In the case of N=C(N)NCCC[C@H](N)C(=O)O.O=C(O)O [Arg HCO3], the Osmot. valence [3] is reported as 2, the Osmot. coefficient ([3]; 0.1 molar solution) is reported as 0.833 and the Osmot. coefficient ([3]; 0.2 m, 100% CO2 at 37° C.) is reported as 0.2 m 0.833 100% CO2 at 37 °C. It also gave an Osmot. coefficient ([3]; 0.3 m, 100% CO2 at 37° C.) of 0.3 m 0.763 100% CO2 at 37 °C.

In the case of NCCCC[C@H](N)C(=O)O [Lysine, lysine], the Osmot. valence [3] is listed as 1, the Osmot. coefficient ([3]; 0.1 molar solution) is listed as 1.000 and the “pK-values (first value)” value [1] is listed as 2.2. The “pK-values (second value)” value [1] was 8.9, the “pK-values (third value)” value [1] was 10.3 and the pH [2] was 9.55.

For CC(=O)O.NCCCC[C@H](N)C(=O)O [Lysine Acetate, lysine acetate], the pH [2] was 5.99, the “NaOH ΔpH 7.2-7.6” value [2] was 2.5 mmol/L and the “Titr. on 7.4” value [2] was 6.8 mmol/L. For the same compound, the “β (at 7.4) buffer capacity” value [2] was 6.3 mmol/l/pH.

For N [NH4^+], the pK [1] is given as 9.0.

For O=C(O)CC(O)C(=O)O (stereo not shown) [malic acid], the “pK-values (first value)” value [1] is given as 3.5 and the “pK-values (second value)” value [1] is given as 4.7.

Cl.N=C(N)NCCC[C@H](N)C(=O)O [Arg HCl, arginine hydrochloride] gave an Osmot. valence [3] of 2 and an Osmot. coefficient ([3]; 0.1 molar solution) of 0.895.

For O=C(O)O [carbonic acid], the “pK-values (first value)” value [1] is given as 6.1.

In the case of O=S(=O)(O)CCN1CCN(CCO)CC1 [Hepes], the pK [1] is given as 7.35.

For CC(=O)O [acetic acid], the “pK-values (first value)” value [1] is listed as 4.6.

In the case of [Cl-].[Na+] [NaCl], the Osmot. valence [3] is given as 2 and the Osmot. coefficient [4] is given as 0.926.

Work on N=C(N)NCCC[C@H](N)C(=O)O [Arginine, arginine] yielded an Osmot. valence [3] of 1, an Osmot. coefficient ([3]; 0.1 molar solution) of 0.980 and an osmolality ([3]; 0.1 molar solution) of 98 mosmol/kg H2O. The “pK-values (first value)” value [1] was 2.0, the “pK-values (second value)” value [1] was 9.0 and the “pK-values (third value)” value [1] was 12.1. For the same compound, the “effective pK value” [5] was “about 8.6” and the pH [2] was 10.26.

For O=C(O)O [HCO3^−], the pK [1] is listed as 6.1.

For O=C(O)CC(O)(CC(=O)O)C(=O)O [citric acid], the Osmot. valence [3] is listed as 3, the Osmot. coefficient ([3]; 0.1 molar solution) is listed as 0.555 and the “pK-values (first value)” value [1] is listed as 3.0. For the same compound, the “pK-values (second value)” value [1] was 4.4 and the “pK-values (third value)” value [1] was 5.8.

With O=C(O)CC(O)(CC(=O)O)C(=O)O [K3 citrate] the Osmot. valence [3] was 4 and the Osmot. coefficient ([3]; 0.1 molar solution) was 0.681.

O=C([O-])O.[Na+] [NaHCO3] showed an Osmot. valence [3] of 2 and an Osmot. coefficient ([3]; 0.1 molar solution, (assumed)) of 0.926.

With O=C(O)CC(O)(CC(=O)O)C(=O)O [Lys3 citrate, tri-lysine citrate] the Osmot. coefficient ([3]; 0.1 molar solution) was 0.715, the pH [2] was 6.88 and the “NaOH ΔpH 7.2-7.6” value [2] was 5.9 mmol/L. For the same compound, the “Titr. on 7.4” value [2] was 5.8 mmol/L and the “β (at 7.4) buffer capacity” value [2] was 14.8 mmol/l/pH.

Compound O=C(O)CC(O)(CC(=O)O)C(=O)O [Na3 citrate] has an Osmot. valence [3] of 4 and an Osmot. coefficient ([3]; 0.1 molar solution) of 0.681.

For NC(CO)(CO)CO [Tris], the pK [1] is given as 8.2.
